# Source: patent publication USRE32868E, “Antihyperlipidemic compositions” (Research Corporation, priority 1985, dated 1989)
# Test system: mice
# Assay: Acute toxicity (LD50) in mice
# Format: in vivo
# Details: 2 g/kg
# Description: They also are non-toxic. […] Moreover, there is no evidence that the weight of any of the major organs is altered as a result of treatment with compounds used in the invention.
structure (smiles),measurement,value
CC(=O)CN1C(=O)c2ccccc2C1=O [1-N--Phthalimidopropan-2-one],deaths,no deaths were observed
